From ChEMBL document CHEMBL1136318, “Synthesis and X-ray crystal structures of substituted fluorobenzene and benzoquinone inhibitors of the tissue factor VIIa complex” (Bioorg Med Chem Lett, 2003)

Assays:
Prothrombin = Prothrombin (Homo sapiens, UniProt P00734); test: Inhibitory activity against thrombin
Coagulation factor X = Coagulation factor X (Homo sapiens, UniProt P00742); test: Inhibitory activity against coagulation factor X
Chain of Coagulation factor X (P00742 41-179 limits assumed): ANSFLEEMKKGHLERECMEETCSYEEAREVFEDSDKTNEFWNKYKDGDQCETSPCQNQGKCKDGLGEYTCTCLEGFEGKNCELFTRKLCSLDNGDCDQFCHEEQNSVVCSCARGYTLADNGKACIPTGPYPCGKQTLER
Chain of Coagulation factor X (P00742 235-488 limits assumed): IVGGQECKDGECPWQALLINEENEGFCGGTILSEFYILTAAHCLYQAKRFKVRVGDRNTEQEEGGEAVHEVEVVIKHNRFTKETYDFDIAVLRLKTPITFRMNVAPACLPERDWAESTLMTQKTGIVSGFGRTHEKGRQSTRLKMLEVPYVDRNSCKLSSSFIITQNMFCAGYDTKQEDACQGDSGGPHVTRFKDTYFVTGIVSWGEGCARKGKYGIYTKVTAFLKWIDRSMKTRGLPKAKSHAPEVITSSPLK

Row | IC50 (Prothrombin) [µM] | IC50 (Coagulation factor X) [µM] | Structure (SMILES)
1 | > 30 | – | CC(C)/N=C1\C=C(O)C(c2ccccc2)=C(CC(=O)NCc2ccc(C(=N)N)cc2)C1=O
2 | – | > 30 | CC(C)Nc1ccc(-c2cccc(N)c2)c(CC(=O)NCc2ccc(C(=N)N)cc2)c1F
